In experiment [1] the target is Mitogen-activated protein kinase 1 (ERK2), Rattus norvegicus (UniProt P63086). The experiment can be described thus: Inhibition of ERK2 phosphorylation in IgE-sensitized rat RBL2H3 cells at 20 uM. The conditions noted are these: RBL-2H3.
Experiment [2] relates to RBL-2H3. Put plainly: Inhibition of p38 phosphorylation in IgE-sensitized rat RBL2H3 cells at 20 uM. The experiment is classed as cell-based.
Experiment [3] concerns RBL-2H3. The experiment can be described thus: Decrease in FcepsilonRI-induced intracellular ROS level in IgE-sensitized rat RBL2H3 cells assessed as DCF oxidation at 20 uM after 30 mins. Format: functional, cell-based.
The subject of experiment [4] is RBL-2H3. The experiment can be described thus: Inhibition of DNP-BSA induced intracellular calcium elevation in IgE-sensitized rat RBL2H3 cells at 20 uM after 30 mins. The experiment is classed as functional, cell-based.
Experiment [5] concerns the target Tyrosine-protein kinase SYK (Rattus norvegicus) (UniProt Q64725). The experiment can be described thus: Inhibition of Syk phosphorylation in IgE-sensitized rat RBL2H3 cells at 20 uM. The conditions noted are these: RBL-2H3. The experiment is classed as cell-based.
In experiment [6] the test system is Radical scavenging activity. Put plainly: Antioxidant activity assessed as DPPH radical scavenging activity. The experiment is classed as functional.
Experiment [7] has as its target Mitogen-activated protein kinase 8 (JNK1), Rattus norvegicus (UniProt P49185). The experiment can be described thus: Inhibition of JNK1 phosphorylation in IgE-sensitized rat RBL2H3 cells at 20 uM. As to conditions: RBL-2H3.
For experiment [8], the target named is Mitogen-activated protein kinase 3 (ERK1), Rattus norvegicus (UniProt P21708). Put plainly: Inhibition of ERK1 phosphorylation in IgE-sensitized rat RBL2H3 cells at 20 uM. The conditions noted are these: RBL-2H3.
Mitogen-activated protein kinase 3 (ERK1), Rattus norvegicus, sequence (P21708 whole entry, looked up): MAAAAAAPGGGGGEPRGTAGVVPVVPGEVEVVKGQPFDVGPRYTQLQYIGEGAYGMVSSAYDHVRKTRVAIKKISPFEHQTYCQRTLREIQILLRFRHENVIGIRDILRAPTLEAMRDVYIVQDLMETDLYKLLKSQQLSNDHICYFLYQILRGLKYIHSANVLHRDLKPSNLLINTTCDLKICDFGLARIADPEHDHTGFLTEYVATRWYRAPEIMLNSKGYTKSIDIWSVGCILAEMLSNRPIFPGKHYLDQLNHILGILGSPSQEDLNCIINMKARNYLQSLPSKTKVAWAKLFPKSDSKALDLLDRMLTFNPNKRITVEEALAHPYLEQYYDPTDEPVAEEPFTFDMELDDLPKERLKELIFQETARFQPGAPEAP
In experiment [9] the target is Mitogen-activated protein kinase 9 (JNK2), Rattus norvegicus (UniProt P49186). Put plainly: Inhibition of JNK2 phosphorylation in IgE-sensitized rat RBL2H3 cells at 20 uM. As to conditions: RBL-2H3.
Mitogen-activated protein kinase 9 (JNK2), Rattus norvegicus, sequence (P49186 whole entry, looked up): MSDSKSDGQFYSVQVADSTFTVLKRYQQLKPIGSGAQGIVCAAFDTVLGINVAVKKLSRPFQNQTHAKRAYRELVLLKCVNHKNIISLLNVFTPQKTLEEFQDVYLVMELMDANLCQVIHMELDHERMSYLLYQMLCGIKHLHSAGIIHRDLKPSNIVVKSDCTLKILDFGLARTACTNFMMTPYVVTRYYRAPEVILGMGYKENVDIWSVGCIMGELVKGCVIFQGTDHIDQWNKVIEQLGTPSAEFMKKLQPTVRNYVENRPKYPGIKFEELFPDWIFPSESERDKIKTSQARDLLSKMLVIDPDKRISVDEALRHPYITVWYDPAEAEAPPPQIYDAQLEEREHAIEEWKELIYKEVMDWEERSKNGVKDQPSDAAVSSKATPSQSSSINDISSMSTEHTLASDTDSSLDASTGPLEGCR
Experiment [10] deals with RBL-2H3. Put plainly: Inhibition of A23187-induced degranulation in rat RBL2H3 cells. Format: functional, cell-based.
For experiment [11], the target named is Tyrosine-protein kinase Lyn (Rattus norvegicus) (UniProt Q07014). Put plainly: Inhibition of Lyn phosphorylation in IgE-sensitized rat RBL2H3 cells at 20 uM. Format: cell-based. The conditions noted are these: RBL-2H3.
Tyrosine-protein kinase Lyn (Rattus norvegicus), sequence (Q07014 whole entry): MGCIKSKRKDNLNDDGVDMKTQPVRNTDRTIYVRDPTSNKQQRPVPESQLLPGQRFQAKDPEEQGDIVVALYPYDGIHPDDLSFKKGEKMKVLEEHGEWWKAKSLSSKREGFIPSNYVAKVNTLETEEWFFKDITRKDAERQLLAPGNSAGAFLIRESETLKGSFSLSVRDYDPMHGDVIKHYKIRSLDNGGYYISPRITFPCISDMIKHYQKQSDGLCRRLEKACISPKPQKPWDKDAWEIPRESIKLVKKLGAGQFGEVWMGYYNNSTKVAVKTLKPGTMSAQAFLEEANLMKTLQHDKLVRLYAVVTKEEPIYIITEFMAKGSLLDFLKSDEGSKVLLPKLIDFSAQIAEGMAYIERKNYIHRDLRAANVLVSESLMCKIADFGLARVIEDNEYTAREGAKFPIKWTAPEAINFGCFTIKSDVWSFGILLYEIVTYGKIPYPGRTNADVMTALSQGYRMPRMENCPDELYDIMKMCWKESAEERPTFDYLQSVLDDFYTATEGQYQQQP
The test system of experiment [12] is RBL-2H3. The experiment can be described thus: Inhibition of DNP-BSA stimulated histamine release in IgE-sensitized rat RBL2H3 cells after 30 mins. The experiment is classed as functional, cell-based.
For experiment [13], the system named is Phospholipase C-gamma-2, Rattus norvegicus. The experiment can be described thus: Inhibition of PLC-gamma2 phosphorylation in IgE-sensitized rat RBL2H3 cells at 20 uM. As to conditions: RBL-2H3.
Experiment [14] relates to Phospholipase C-gamma-1, Rattus norvegicus. Put plainly: Inhibition of PLC-gamma1 phosphorylation in IgE-sensitized rat RBL2H3 cells at 20 uM. The conditions noted are these: RBL-2H3.
Experiment [15] concerns the target Tyrosine-protein kinase SYK (Rattus norvegicus) (UniProt Q64725). The experiment can be described thus: Inhibition of ERK2 phosphorylation in IgE-sensitized rat RBL2H3 cells […] at 50 uM after 30 mins. Format: cell-based. As to conditions: RBL-2H3.
Experiment [16] shares this target. Put plainly: Inhibition of ERK1 phosphorylation in IgE-sensitized rat RBL2H3 cells […] at 50 uM after 30 mins. Format: cell-based. The conditions noted are these: RBL-2H3.
The target in experiment [17] is Mitogen-activated protein kinase 3 (ERK1), Rattus norvegicus (UniProt P21708). The experiment can be described thus: Inhibition of ERK1 phosphorylation in IgE-sensitized rat RBL2H3 cells […] at 100 uM after 30 mins. As to conditions: RBL-2H3.
The target in experiment [18] is Mitogen-activated protein kinase 1 (ERK2), Rattus norvegicus (UniProt P63086). Put plainly: Inhibition of ERK2 phosphorylation in IgE-sensitized rat RBL2H3 cells […] at 2 uM after 30 mins. The conditions noted are these: RBL-2H3.
Experiment [19] deals with Mitogen-activated protein kinase 3 (ERK1), Rattus norvegicus (UniProt P21708). The experiment can be described thus: Inhibition of ERK1 phosphorylation in IgE-sensitized rat RBL2H3 cells […] at 2 uM after 30 mins. The conditions noted are these: RBL-2H3.
Experiment [20] addresses Mitogen-activated protein kinase 1 (ERK2), Rattus norvegicus (UniProt P63086). The experiment can be described thus: Inhibition of ERK2 phosphorylation in IgE-sensitized rat RBL2H3 cells […] at 100 uM after 30 mins. As to conditions: RBL-2H3.

Results on 8 compounds are retold here after ChEMBL document CHEMBL1144734, “Inhibitory effect of xanthones isolated from the pericarp of Garcinia mangostana L. on rat basophilic leukemia RBL-2H3 cell degranulation” (Bioorg Med Chem, 2008).

The source made the active and inactive calls. The rule behind the calls is not given here.

Mitogen-activated protein kinase 8 (JNK1), Rattus norvegicus, sequence (P49185 whole entry, looked up): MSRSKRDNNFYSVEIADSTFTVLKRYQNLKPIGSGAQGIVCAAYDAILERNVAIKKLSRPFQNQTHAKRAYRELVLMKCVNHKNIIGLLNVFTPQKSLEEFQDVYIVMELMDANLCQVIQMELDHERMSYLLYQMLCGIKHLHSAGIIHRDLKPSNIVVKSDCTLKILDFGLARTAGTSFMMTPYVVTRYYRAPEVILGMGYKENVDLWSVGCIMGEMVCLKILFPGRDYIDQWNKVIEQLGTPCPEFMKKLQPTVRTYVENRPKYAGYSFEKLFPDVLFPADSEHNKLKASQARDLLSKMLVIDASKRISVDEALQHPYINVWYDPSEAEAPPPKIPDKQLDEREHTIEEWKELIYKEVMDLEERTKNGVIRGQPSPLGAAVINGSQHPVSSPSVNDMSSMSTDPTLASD
Tyrosine-protein kinase SYK (Rattus norvegicus), sequence (Q64725 whole entry, looked up): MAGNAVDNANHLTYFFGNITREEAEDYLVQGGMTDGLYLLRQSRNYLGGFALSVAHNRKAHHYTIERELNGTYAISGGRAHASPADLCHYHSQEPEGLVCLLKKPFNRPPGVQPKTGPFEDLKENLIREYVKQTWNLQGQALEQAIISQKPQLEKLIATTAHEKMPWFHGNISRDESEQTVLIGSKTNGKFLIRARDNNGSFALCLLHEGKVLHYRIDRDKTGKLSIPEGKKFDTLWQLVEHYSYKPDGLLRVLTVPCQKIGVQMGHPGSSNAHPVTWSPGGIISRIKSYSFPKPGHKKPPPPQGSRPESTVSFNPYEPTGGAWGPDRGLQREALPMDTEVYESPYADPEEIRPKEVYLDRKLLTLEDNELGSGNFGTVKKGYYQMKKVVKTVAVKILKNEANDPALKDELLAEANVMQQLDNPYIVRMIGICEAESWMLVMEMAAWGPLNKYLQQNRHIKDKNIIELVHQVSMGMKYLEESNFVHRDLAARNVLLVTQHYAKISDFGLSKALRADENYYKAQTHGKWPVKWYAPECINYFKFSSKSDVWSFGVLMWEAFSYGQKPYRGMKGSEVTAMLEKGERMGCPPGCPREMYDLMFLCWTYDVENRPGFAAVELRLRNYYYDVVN
Mitogen-activated protein kinase 1 (ERK2), Rattus norvegicus, sequence (P63086 whole entry, looked up): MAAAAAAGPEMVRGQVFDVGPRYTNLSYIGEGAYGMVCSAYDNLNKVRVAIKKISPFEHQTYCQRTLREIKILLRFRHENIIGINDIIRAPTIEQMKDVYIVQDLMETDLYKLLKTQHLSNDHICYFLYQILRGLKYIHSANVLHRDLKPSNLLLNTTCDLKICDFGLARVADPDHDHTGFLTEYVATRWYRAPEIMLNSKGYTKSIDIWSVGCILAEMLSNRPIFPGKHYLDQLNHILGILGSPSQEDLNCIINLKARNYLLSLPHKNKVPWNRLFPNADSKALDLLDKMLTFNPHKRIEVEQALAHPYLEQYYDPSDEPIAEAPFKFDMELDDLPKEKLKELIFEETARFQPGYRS

In the case of `CC(C)=CCc1c(O)cc2oc3cc(O)c(O)c(CC=C(C)C)c3c(=O)c2c1O`, the outcome in [1], in [3], in experiment [4], in experiment [5], in experiment [6] and in [8] was Active. The outcome in experiment [2], in experiment [7], in experiment [9], in [10] and in [11] was inactive. Moreover, the Activity result in experiment [12] was “Dose-dependent effect”.
As for `COc1cc2oc3cc(O)c(OC)c(CC=C(C)C)c3c(=O)c2c(O)c1CC=C(C)C`, the result in experiment [1], in [13], in [4], in [5], in experiment [14] and in [8] was Active. Further, the result in experiment [2], in experiment [3], in experiment [7], in experiment [9], in [10] and in [11] was inactive. Further, the Activity result in experiment [12] is “Dose-dependent effect”.
As to `COc1c(O)cc2oc3cc(O)c(CC=C(C)C)c(O)c3c(=O)c2c1CC=C(C)C`, the result in experiment [1], in experiment [4], in experiment [5] and in experiment [8] was Active. Moreover, the result in [2], in experiment [3], in [7], in [9], in experiment [10] and in [11] was inactive. For the same compound, the Activity entry in [12] was “Dose-dependent effect”.
As to `COc1c(C[C@@H](C)OC(=O)Oc2ccc(O)cc2)c2c3c(C[C@@H](C)OC(=O)c4ccccc4)c(OC)c(=O)c4c(O)cc(OC)c(c5c(OC)cc(O)c(c1=O)c52)c43`, the result in experiment [15] and in experiment [16] was inactive.
On to `CC(=O)c1c(O)c(C)c(O)c(Cc2c(O)c3c(c(C(=O)/C=C/c4ccccc4)c2O)OC(C)(C)C=C3)c1O`, for which the result in [17] and in experiment [18] was inactive.
Take `COc1ccc2c(c1)c(C1=C(c3c[nH]c4ccccc34)C(=O)NC1=O)cn2CCCN(C)C`: the outcome in experiment [19] and in experiment [20] was inactive.
`O=c1cc(N2CCOCC2)oc2c(-c3ccccc3)cccc12`: in experiment [18], the result was inactive. Besides, in [10], the result was Active.
Consider `CN(C)C[C@H]1CCn2c(c(C3=C(c4cn(C)c5ccccc45)C(=O)NC3=O)c3ccccc32)C1`, for which the outcome in [17] and in [20] was inactive.
